Reference: article PMC9743094, “Synthesis and Evaluation of Polymyxins Bearing Reductively Labile Disulfide-Linked Lipids” (Journal of Medicinal Chemistry, 2022)
Values after ≈ are worked out from the molar mass of the structure shown. Positions of bridges follow the written chain, without caps; N, C: chain ends. Non-standard residues stand in square brackets, D forms with d. Residues, ends and D or L forms follow the SMILES beside them. *: point of attachment. Phenylthio(4-OPh) = c1ccc(Oc2ccc(S*)cc2)cc1; S(2-cyclohexylethyl) = C1CCC(CCS*)CC1; S(3-Methylbutyl) = CC(C)CCS*; X6 = c1ccc(-c2ccc(S*)cc2)cc1; Dab = NCC[C@H](N)C(=O)O; X1 = CC(C)CCCCS*; X4 = CCCCCCS*

What was measured:
[1] = test system: A. baumannii (ATCC 19606); format: cell-based; conditions: ATCC 19606
Description: (§1) Minimum inhibitory concentrations (MICs) on relevant Gram-negative bacteria were determined by broth microdilution, in accordance with CLSI guidelines. Indicated bacteria were taken from glycerol stocks and incubated overnight on blood agar at 37 °C. Well-isolated colonies were taken, suspended in TSB (5 mL), and grown to an OD600 of 0.5. Compounds to be tested were dissolved in DMSO (6.4 mg/mL), diluted in cation-adjusted Mueller–Hinton Broth (CAMHB) (12.5 and 20 μg/mL Mg^2+ and Ca^2+, respectively), and diluted serially on polypropylene microtiter plates. To the diluted compounds (50 μL per well) was added 50 μL of relevant bacterial suspension, to yield a final concentration of 10^6 CFU/mL. Plates were covered by adhesive gas-permeable membranes and incubated at 37 °C. MIC was read out as the lowest concentration that inhibited visual bacterial growth. Shown values are consistent results from at least duplicate experiments.

E. coli (ATCC 25922) = format: cell-based; conditions: ATCC 25922
Description: as §1

[2] = test system: K. pneumoniae (ATCC 13883); format: cell-based; conditions: ATCC 13883
Description: as §1

[3] = test system: P. aeruginosa (ATCC 27853); format: cell-based; conditions: ATCC 27853
Description: as §1

[4] = test system: differentiated conditionally immortalized PTECs (ciPTECs, OAT-1); assay: ciPTEC toxicity assay (PrestoBlue); format: cell-based, human
Description: ciPTECs (OAT-1) cells,[52],[53] grown to 90–100% confluence, were washed by Hanks’ balanced salt solution (HBSS; Gibco, Life Technologies, Paisley, U.K.) and detached by accutase (4 mL) for 5 min at 37 °C. The cells were then suspended in fresh medium (DMEM/F-12, supplemented with 10% fetal calf serum, insulin (5 μg/mL), transferrin (5 μg/mL), selenium (5 μg/mL) hydrocortisone (35 ng/mL), Epidermal Growth Factor (10 ng/mL) and tri-iodothyronine (40 pg/mL)). Cell density was adjusted to 2.0 × 10^5 cells/mL, of which 100 μL was added to each well of a 96-well plate. The cells were incubated for 24 h at 33 °C, followed by 6 days at 37 °C, in a humidified atmosphere containing 5% (v/v) CO2. The medium was refreshed every second or third day.
Compounds were dissolved and serially diluted in serum-free medium. Differentiated cells were washed once with HBSS and serially diluted compounds (80 μL/well) were transferred to the ciPTEC-containing plate. Compounds were incubated for 24 h at 37 °C; the cells were washed by HBSS, followed by incubation with 10% PrestoBlue cell viability reagent (Thermo Scientific, Vienna, Austria) in HBSS at 37 °C in the dark. Fluorescence was recorded (excitation: 530 nm, emission: 590 nm). Raw data are corrected for PrestoBlue background fluorescence and reported relative to the no-treatment control (cells with medium only). Viability data were fitted with GraphPad Prism software (version 5.03; GraphPad Software, La Jolla, CA), by nonlinear regression with 0 as bottom constraint. Presented data are based on triplicates.
Toxicity assessment on PTECs
Table S1. TC50 values for polymyxin analogues. Toxicity assessment on proximal tubular epithelial cells
performed using PrestoBlue™ assay. TC50 values are derived after non-linear regression analysis on cell viability
correspond to data obtained from 2 different batches of cells/analyses on different days. As the value for
polymyxin B differs 2-fold, values in the manuscript are presented relative to the polymyxin B value.
Compound TC50 (µ M) Compound TC50 (µ M)
Polymyxin B 80 Polymyxin B 41
Figure S3. Representative traces of ciPTECs’ viability after incubation with analogues for 24 hours. Shown data are based on […]

SMILES | MIC A. baumannii (ATCC 19606) [1] | MIC E. coli (ATCC 25922) (E. coli (ATCC 25922)) | MIC K. pneumoniae (ATCC 13883) [2] | MIC P. aeruginosa (ATCC 27853) [3] | TC50, Day 1 [4] | ciPTEC Toxicity Index (relative to polymyxin B) [4]
CC(C)C[C@@H]1NC(=O)[C@@H](Cc2ccccc2)NC(=O)[C@H](CCN)NC(=O)[C@@H](NC(=O)[C@H](CCN)NC(=O)[C@@H](NC(=O)[C@@H](CSSc2ccc(-c3ccccc3)cc2)NC(=O)CN)[C@@H](C)O)CCNC(=O)[C@H]([C@@H](C)O)NC(=O)[C@H](CCN)NC(=O)[C@H](CCN)NC1=O [Compound 31b] (H-G[dC](X6)T[Dab][Dab][Dab][dF]L[Dab][Dab]T; lactam 5-C) | 16 µg/mL (≈ 12.2 µM) | 8 µg/mL (≈ 6.12 µM) | 4 µg/mL (≈ 3.06 µM) | 8 µg/mL (≈ 6.12 µM) | – | –
CC(C)C[C@@H]1NC(=O)[C@@H](Cc2ccccc2)NC(=O)[C@H](CCN)NC(=O)[C@@H](NC(=O)[C@H](CCN)NC(=O)[C@@H](NC(=O)[C@H](N)CSSc2ccc(Oc3ccccc3)cc2)[C@@H](C)O)CCNC(=O)[C@H]([C@@H](C)O)NC(=O)[C@H](CCN)NC(=O)[C@H](CCN)NC1=O [Compound 30b] (H-[dC](Phenylthio(4-OPh))T[Dab][Dab][Dab][dF]L[Dab][Dab]T; lactam 4-C) | 4 µg/mL (≈ 3.16 µM) | 4 µg/mL (≈ 3.16 µM) | 2 µg/mL (≈ 1.58 µM) | 4 µg/mL (≈ 3.16 µM) | – | –
CC(C)C[C@@H]1NC(=O)[C@@H](Cc2ccccc2)NC(=O)[C@H](CCN)NC(=O)[C@@H](NC(=O)[C@H](CCN)NC(=O)[C@@H](N)[C@@H](C)O)CCNC(=O)[C@H]([C@@H](C)O)NC(=O)[C@H](CCN)NC(=O)[C@H](CCN)NC1=O [PMBN, polymyxin B nonapeptide, reference compound] (H-T[Dab][Dab][Dab][dF]L[Dab][Dab]T; lactam 3-C) | >32 µg/mL | >32 µg/mL | >32 µg/mL | >32 µg/mL | – | –
CC(C)C[C@@H]1NC(=O)[C@@H](Cc2ccccc2)NC(=O)[C@H](CCN)NC(=O)[C@@H](NC(=O)[C@H](CCN)NC(=O)[C@@H](NC(=O)[C@H](CSSc2ccc(-c3ccccc3)cc2)NC(=O)CN)[C@@H](C)O)CCNC(=O)[C@H]([C@@H](C)O)NC(=O)[C@H](CCN)NC(=O)[C@H](CCN)NC1=O [Compound 31a] (H-GC(X6)T[Dab][Dab][Dab][dF]L[Dab][Dab]T; lactam 5-C) | 16 µg/mL (≈ 12.2 µM) | 4 µg/mL (≈ 3.06 µM) | 2 µg/mL (≈ 1.53 µM) | 8 µg/mL (≈ 6.12 µM) | – | –
CC(C)CCCCSSC[C@H](N)C(=O)N[C@H](C(=O)N[C@@H](CCN)C(=O)N[C@H]1CCNC(=O)[C@H]([C@@H](C)O)NC(=O)[C@H](CCN)NC(=O)[C@H](CCN)NC(=O)[C@H](CC(C)C)NC(=O)[C@@H](Cc2ccccc2)NC(=O)[C@H](CCN)NC1=O)[C@@H](C)O [Compound 20a] (H-C(X1)T[Dab][Dab][Dab][dF]L[Dab][Dab]T; lactam 4-C) | 4 µg/mL (≈ 3.34 µM) | 2 µg/mL (≈ 1.67 µM) | 1 µg/mL (≈ 0.836 µM) | 2 µg/mL (≈ 1.67 µM) | – | –
CC(C)C[C@@H]1NC(=O)[C@@H](Cc2ccccc2)NC(=O)[C@H](CCN)NC(=O)[C@@H](NC(=O)[C@H](CCN)NC(=O)[C@@H](NC(=O)[C@@H](N)CSSCCC2CCCCC2)[C@@H](C)O)CCNC(=O)[C@H]([C@@H](C)O)NC(=O)[C@H](CCN)NC(=O)[C@H](CCN)NC1=O [Compound 19a] (H-C(S(2-cyclohexylethyl))T[Dab][Dab][Dab][dF]L[Dab][Dab]T; lactam 4-C) | 32 µg/mL (≈ 26.5 µM) | 8 µg/mL (≈ 6.62 µM) | 4 µg/mL (≈ 3.31 µM) | 4 µg/mL (≈ 3.31 µM) | – | –

Now from value to compound, other results behind:

MIC A. baumannii (ATCC 19606) [1] | MIC E. coli (ATCC 25922) (E. coli (ATCC 25922)) | MIC K. pneumoniae (ATCC 13883) [2] | MIC P. aeruginosa (ATCC 27853) [3] | SMILES | TC50, Day 1 [4] | ciPTEC Toxicity Index (relative to polymyxin B) [4]
2 µg/mL (≈ 1.61 µM) | 4 µg/mL (≈ 3.23 µM) | 1 µg/mL (≈ 0.807 µM) | 2 µg/mL (≈ 1.61 µM) | CCCCCCSSC[C@H](NC(=O)CN)C(=O)N[C@H](C(=O)N[C@@H](CCN)C(=O)N[C@H]1CCNC(=O)[C@H]([C@@H](C)O)NC(=O)[C@H](CCN)NC(=O)[C@H](CCN)NC(=O)[C@H](CC(C)C)NC(=O)[C@@H](Cc2ccccc2)NC(=O)[C@H](CCN)NC1=O)[C@@H](C)O [Compound 21a] (H-GC(X4)T[Dab][Dab][Dab][dF]L[Dab][Dab]T; lactam 5-C) | – | –
32 µg/mL (≈ 25.6 µM) | 4 µg/mL (≈ 3.2 µM) | 4 µg/mL (≈ 3.2 µM) | 8 µg/mL (≈ 6.4 µM) | CC(C)C[C@@H]1NC(=O)[C@@H](Cc2ccccc2)NC(=O)[C@H](CCN)NC(=O)[C@@H](NC(=O)[C@H](CCN)NC(=O)[C@@H](NC(=O)[C@@H](N)CSSc2ccc(-c3ccccc3)cc2)[C@@H](C)O)CCNC(=O)[C@H]([C@@H](C)O)NC(=O)[C@H](CCN)NC(=O)[C@H](CCN)NC1=O [Compound 29a] (H-C(X6)T[Dab][Dab][Dab][dF]L[Dab][Dab]T; lactam 4-C) | – | –
>32 µg/mL | 4 µg/mL (≈ 3.16 µM) | 4 µg/mL (≈ 3.16 µM) | 4 µg/mL (≈ 3.16 µM) | CC(C)C[C@@H]1NC(=O)[C@@H](Cc2ccccc2)NC(=O)[C@H](CCN)NC(=O)[C@@H](NC(=O)[C@H](CCN)NC(=O)[C@@H](NC(=O)[C@@H](N)CSSc2ccc(Oc3ccccc3)cc2)[C@@H](C)O)CCNC(=O)[C@H]([C@@H](C)O)NC(=O)[C@H](CCN)NC(=O)[C@H](CCN)NC1=O [Compound 30a] (H-C(Phenylthio(4-OPh))T[Dab][Dab][Dab][dF]L[Dab][Dab]T; lactam 4-C) | – | –
8 µg/mL (≈ 6.04 µM) | 8 µg/mL (≈ 6.04 µM) | 4 µg/mL (≈ 3.02 µM) | 4 µg/mL (≈ 3.02 µM) | CC(C)C[C@@H]1NC(=O)[C@@H](Cc2ccccc2)NC(=O)[C@H](CCN)NC(=O)[C@@H](NC(=O)[C@H](CCN)NC(=O)[C@@H](NC(=O)[C@@H](CSSc2ccc(Oc3ccccc3)cc2)NC(=O)CN)[C@@H](C)O)CCNC(=O)[C@H]([C@@H](C)O)NC(=O)[C@H](CCN)NC(=O)[C@H](CCN)NC1=O [Compound 32b] (H-G[dC](Phenylthio(4-OPh))T[Dab][Dab][Dab][dF]L[Dab][Dab]T; lactam 5-C) | – | –
32 µg/mL (≈ 24.2 µM) | 8 µg/mL (≈ 6.04 µM) | 4 µg/mL (≈ 3.02 µM) | 8 µg/mL (≈ 6.04 µM) | CC(C)C[C@@H]1NC(=O)[C@@H](Cc2ccccc2)NC(=O)[C@H](CCN)NC(=O)[C@@H](NC(=O)[C@H](CCN)NC(=O)[C@@H](NC(=O)[C@H](CSSc2ccc(Oc3ccccc3)cc2)NC(=O)CN)[C@@H](C)O)CCNC(=O)[C@H]([C@@H](C)O)NC(=O)[C@H](CCN)NC(=O)[C@H](CCN)NC1=O [Compound 32a] (H-GC(Phenylthio(4-OPh))T[Dab][Dab][Dab][dF]L[Dab][Dab]T; lactam 5-C) | – | –
4 µg/mL (≈ 3.26 µM) | – | 2 µg/mL (≈ 1.63 µM) | 2 µg/mL (≈ 1.63 µM) | CC(C)CCSSC[C@H](NC(=O)CN)C(=O)N[C@H](C(=O)N[C@@H](CCN)C(=O)N[C@H]1CCNC(=O)[C@H]([C@@H](C)O)NC(=O)[C@H](CCN)NC(=O)[C@H](CCN)NC(=O)[C@H](CC(C)C)NC(=O)[C@@H](Cc2ccccc2)NC(=O)[C@H](CCN)NC1=O)[C@@H](C)O [Compound 22a] (H-GC(S(3-Methylbutyl))T[Dab][Dab][Dab][dF]L[Dab][Dab]T; lactam 5-C) | 305 µM | 3.8
